Marks after values point to notes of the source that are not given here. One block for each compound: values may come before it.
Tests used:
[1] = KAR-001 Phase I study: xanomeline and trospium plasma pharmacokinetics; format: in vivo, human
[2] = system: normal healthy volunteers; set-up: species or system human; details: in vivo
Procedure: A Phase I, double-blind, randomized multiple-dose pilot study was conducted with xanomeline administered alone compared to xanomeline administered with trospium chloride in normal healthy volunteers. […]

[3] = system: Alzheimer's disease; details: 26-week study of Alzheimer's disease; cited from earlier work
[4] = Mutagenic potential of xanomeline synthesis intermediate

Structure (SMILES): O=C(O[C@H]1C[C@H]2CC[C@@H](C1)[N+]21CCCC1)C(O)(c1ccccc1)c1ccccc1 [trospium alone, trospium chloride]
Trospium Tmax ([1]; KAR-001 Day 1, 20 mg trospium BID lead-in, median): 3.0 h
Tmax ([1]; human, in vivo, 20 mg, KAR-001 Day 1, read-out: Trospium median Tmax): 3 h
Cmax ([1]; human, in vivo, KAR-001 Day 1, 20 mg trospium BID lead-in, geometric mean): 0.722 ng/mL
AUC(0-inf) ([1]; human, in vivo, KAR-001 Day 1, 20 mg trospium BID lead-in, geometric mean, read-out: Trospium AUC0-inf): 7.79 ng·h/mL
AUC ([1]; human, in vivo, KAR-001 Day 1, 20 mg trospium BID lead-in, geometric mean, read-out: Trospium AUC0-tau): 5.03 ng·h/mL

Diarrhea, number of individual occurrences [2]: 8 #
Hyperhidrosis, number of individual occurrences [2]: 24 #
Nausea, number of individual occurrences [2]: 11 #
Salivary hypersecretion, number of individual occurrences [2]: 16 #
Subjects who experienced syncope [2]: Two
Vomiting, number of individual occurrences [2]: 5 #
Structure (SMILES): CCCCCCOc1nsnc1C1=CCCN(C)C1 [Xanomeline + placebo, xanomeline]
AE leading to discontinuation (D/C) [2]: 2 (6.1) n (%)
AE leading to discontinuation (D/C): # events [2]: 2
Any SAE [2]: 0 (0.0) n (%)
Any TEAE: # events [2]: 108
Any cholinergic TEAEs, number of individual occurrences [2]: 64 #
Any clinically significant TEAE [2]: 5 (15.2) n (%)
Any clinically significant TEAE: # events [2]: 5
Any study drug-related TEAE [2]: 23 (69.7) n (%)
Any study drug-related TEAE: # events [2]: 92
Cholinergic adverse events, Any TEAEs: # of events [2]: 64
Cholinergic adverse events, Any TEAEs: subjects [2]: 21 (63.6%) n [%]
Cholinergic adverse events, Diarrhea: # of events [2]: 8
Cholinergic adverse events, Diarrhea: subjects [2]: 7 (21.2%) n [%]
Cholinergic adverse events, Nausea: # of events [2]: 11
Cholinergic adverse events, Nausea: subjects [2]: 8 (24.2%) n [%]
Cholinergic adverse events, Salivation: # of events [2]: 16
Cholinergic adverse events, Salivation: subjects [2]: 12 (36.4%) n [%]
Cholinergic adverse events, Sweating: # of events [2]: 24
Cholinergic adverse events, Sweating: subjects [2]: 16 (48.5%) n [%]
Cholinergic adverse events, Vomiting: # of events [2]: 5
Cholinergic adverse events, Vomiting: subjects [2]: 5 (15.2%) n [%]
Diarrhea, incidence [2]: 7 (20.6) n (%)
Gastrointestinal disorders (cholinergic TEAE), incidence [2]: 18 (52.9) n (%)
Gastrointestinal disorders (cholinergic TEAE), number of individual occurrences [2]: 40 #
Hyperhidrosis, incidence [2]: 16 (47.1) n (%)
Incidence rate of sweating (hyperhidrosis) [2]: 48.5%
Max Severity of TEAE: Mild [2]: 22 (66.7) N/A n (%)
Max Severity of TEAE: Moderate [2]: 5 (15.2) N/A n (%)
Max Severity of TEAE: Severe [2]: 0 (0.0) n (%)
Max severity of study drug-related TEAE: Mild [2]: 19 (57/6) N/A n (%)
Max severity of study drug-related TEAE: Moderate [2]: 4 (12.1) N/A n (%)
Max severity of study drug-related TEAE: Severe [2]: 0 (0.0) N/A n (%)
Nausea, incidence [2]: 8 (23.5) n (%)
Salivary hypersecretion, incidence [2]: 12 (35.3) n (%)
Skin and subcutaneous tissue disorders (cholinergic TEAE), incidence [2]: 16 (47.1) n (%)
Skin and subcutaneous tissue disorders (cholinergic TEAE), number of individual occurrences [2]: 24 #
Study drug related AE leading to D/C [2]: 1 (3.0) n (%)
Study drug related AE leading to D/C: # events [2]: 1
Subjects reporting at least one cholinergic adverse event [2]: 63%
Subjects with any TEAE [2]: 27 (81.8) n (%)
Subjects with any cholinergic TEAEs, incidence [2]: 21 (61.8) n (%)
Vomiting, incidence [2]: 5 (14.7) n (%)
Dropout rate [3]: 56%

Structure (SMILES): CCCCCCOc1nsnc1-c1ccc[n+](C)c1 [Compound V]
Mutagenic potential [4]: negative

Source: patent US20210145804A1, “COMPOSITIONS AND METHODS FOR TREATING DISORDERS AMELIORATED BY MUSCARINIC RECEPTOR ACTIVATION” (Karuna Therapeutics, Inc., priority 2019, published 2021)
